Results from patent US20220279787A1, “a-Substituted Phenyl Structure-Containing Compound, Preparation Method Thereof, and Disinfectant” (Henan Ruibo Pharmaceutical Technology Co. Ltd., priority 2019, published 2022).

Tests used:
Assay type in all cases: cell-based
[1] = system: Pseudomonas aeruginosa ATCC 27853; assay: Suspension quantitative sterilization experiment, Pseudomonas aeruginosa ATCC 27853
Description: (§1) (5) Operation Method of Suspension Quantitative Experiment:
(§2) a. The freeze-dried strain tube was provided, opened up under an aseptic condition, and an appropriate amount of nutrient broth was added thereto with a capillary pipette. The strain was melted and dispersed by gently blowing and sucking several times. A test tube containing 5.0 mL-10.0 mL of nutrient broth medium was provided, and a small amount of bacterial suspension was dropped thereto, and incubated at 37° C. for 18 h-24 h. The bacterial suspension of the first generation culture was taken by using an inoculation loop, and streaked and inoculated onto a nutrient agar medium plate, and incubated at 37° C. for 18 h-24 h. The typical colonies from the second generation culture was picked out, inoculated onto a nutrient agar slant, and incubated at 37° C. for 18 h-24 h, obtaining the third generation culture.
(§3) b. The monoclonal strains of the third generation culture of Escherichia coli ATCC 25922, Staphylococcus aureus ATCC 29213, and Pseudomonas aeruginosa ATCC 27853 were picked out respectively and placed in 3 mL of NMB. The strains were shaken in a constant temperature culture shaker for 3 h with a rotation speed of 220 rpm, obtaining a bacterial suspension with a concentration of (1-5)×10^8 CFU/mL.
(§4) c. 0.5 mL of bacterial suspension was added to a sterile test tube, and 0.5 mL of an organic interfering substance (0.03 mol/L PBS buffer) was then added thereto. They were mixed to be uniform, and placed in a water bath at 20° C.±1° C. for 5 min. 4.0 mL of the sample to be tested prepared in step (1) was drawn with a sterile pipette and injected into the mixed solution, mixed quickly, and the time was recorded immediately.
(§5) d. After the experimental bacteria interacted with the sample to be tested for the predetermined time of 1 min, 5 min, 15 min and 30 min. 0.5 mL of the mixture of the experimental bacteria and the sample to be tested was drawn respectively and added to 4.5 mL of a neutralizer, and mixed to be uniform.
(§6) e. After 10 min of neutralization, 1.0 mL of the sample solution was drawn, and the number of viable bacteria was determined by viable count method. After the viable count method, sample solution of each pipette was inoculated onto 2 plates. When the number of colonies growing on the plate was large, 10-fold dilution was performed, and then the viable bacteria was cultured and counted.
(§7) f. At the same time, PBS buffer was used to replace the sample to be tested, and a parallel test was performed as a positive control.
(§8) g. All test samples were placed in a 37° C. incubator overnight, and the results were observed.
(§9) h. The experiment was repeated for 3 times, the concentration of viable bacteria (CFU/mL) of each group was calculated, and converted to logarithmic value (N), and then the killing logarithmic value was calculated according to the following equation:
(§10) Killing logarithmic value (KL)=the logarithmic value of the average viable bacteria concentration of the control group (No)−the logarithmic value of the viable bacteria concentration of the test group (Nx).
(§11) When calculating the killing logarithmic value, two digits after the decimal point was kept, and digital round-off was allowed.

[2] = system: Staphylococcus aureus ATCC 29213; assay: Suspension quantitative sterilization experiment, Staphylococcus aureus ATCC 29213
Description: as §1, §2, §3, §4, §5, §6, §7, §8, §9, §10, §11

[3] = system: Escherichia coli ATCC 25922; assay: Suspension quantitative sterilization experiment, Escherichia coli ATCC 25922
Description: as §1, §2, §3, §4, §5, §6, §7, §8, §9, §10, §11

## Cc1cc(O)cc(C)c1Cl [4-Chloro-3,5-dimethylphenol solution, 4-chloro-3,5-dimethylphenol]
[1]; 0.15 g/L, 1 min
  Killing logarithmic value: 0.78
[1]; 0.15 g/L, 5 min
  Killing logarithmic value: 0.87
[1]; 0.15 g/L, 15 min
  Killing logarithmic value: 0.94
[1]; 0.15 g/L, 30 min
  Killing logarithmic value: 0.96
[1]; 0.31 g/L, 1 min
  Killing logarithmic value: 4.77
[1]; 0.31 g/L, 5 min
  Killing logarithmic value: 4.87
[1]; 0.31 g/L, 15 min
  Killing logarithmic value: 4.91
[1]; 0.31 g/L, 30 min
  Killing logarithmic value: 4.95
[2]; 0.15 g/L, 1 min
  Killing logarithmic value: 2.07
[2]; 0.15 g/L, 5 min
  Killing logarithmic value: 2.74
[2]; 0.15 g/L, 15 min
  Killing logarithmic value: 2.90
[2]; 0.15 g/L, 30 min
  Killing logarithmic value: 3.16
[2]; 0.31 g/L, 1 min
  Killing logarithmic value: 3.12
[2]; 0.31 g/L, 5 min
  Killing logarithmic value: 3.30
[2]; 0.31 g/L, 15 min
  Killing logarithmic value: 3.45
[2]; 0.31 g/L, 30 min
  Killing logarithmic value: 4.13
[3]; 0.15 g/L, 1 min
  Killing logarithmic value: 1.69
[3]; 0.15 g/L, 5 min
  Killing logarithmic value: 1.78
[3]; 0.15 g/L, 15 min
  Killing logarithmic value: 2.32
[3]; 0.15 g/L, 30 min
  Killing logarithmic value: 2.99
[3]; 0.31 g/L, 1 min
  Killing logarithmic value: 6.17
[3]; 0.31 g/L, 5 min
  Killing logarithmic value: 6.17
[3]; 0.31 g/L, 15 min
  Killing logarithmic value: 6.17
[3]; 0.31 g/L, 30 min
  Killing logarithmic value: 6.17

## Oc1ccccc1 [Phenol solution, Phenol]
[1]; 0.15 g/L, 1 min
  Killing logarithmic value: 0.46
[1]; 0.15 g/L, 5 min
  Killing logarithmic value: 0.51
[1]; 0.15 g/L, 15 min
  Killing logarithmic value: 0.57
[1]; 0.15 g/L, 30 min
  Killing logarithmic value: 0.67
[1]; 0.31 g/L, 1 min
  Killing logarithmic value: 0.76
[1]; 0.31 g/L, 5 min
  Killing logarithmic value: 0.79
[1]; 0.31 g/L, 15 min
  Killing logarithmic value: 0.84
[1]; 0.31 g/L, 30 min
  Killing logarithmic value: 0.93
[1]; 0.78 g/L, 1 min
  Killing logarithmic value: 0.99
[1]; 0.78 g/L, 5 min
  Killing logarithmic value: 1.08
[1]; 0.78 g/L, 15 min
  Killing logarithmic value: 1.12
[1]; 0.78 g/L, 30 min
  Killing logarithmic value: 1.16
[1]; 1.56 g/L, 1 min
  Killing logarithmic value: 1.21
[1]; 1.56 g/L, 5 min
  Killing logarithmic value: 1.25
[1]; 1.56 g/L, 15 min
  Killing logarithmic value: 1.34
[1]; 1.56 g/L, 30 min
  Killing logarithmic value: 1.65
[1]; 3.12 g/L, 1 min
  Killing logarithmic value: 1.56
[1]; 3.12 g/L, 5 min
  Killing logarithmic value: 1.86
[1]; 3.12 g/L, 15 min
  Killing logarithmic value: 1.92
[1]; 3.12 g/L, 30 min
  Killing logarithmic value: 1.98
[1]; 6.25 g/L, 1 min
  Killing logarithmic value: 3.07
[1]; 6.25 g/L, 5 min
  Killing logarithmic value: 3.65
[1]; 6.25 g/L, 15 min
  Killing logarithmic value: 4.55
[1]; 6.25 g/L, 30 min
  Killing logarithmic value: 5.25
[2]; 0.15 g/L, 1 min
  Killing logarithmic value: 0.45
[2]; 0.15 g/L, 5 min
  Killing logarithmic value: 0.48
[2]; 0.15 g/L, 15 min
  Killing logarithmic value: 0.55
[2]; 0.15 g/L, 30 min
  Killing logarithmic value: 0.73
[2]; 0.31 g/L, 1 min
  Killing logarithmic value: 0.67
[2]; 0.31 g/L, 5 min
  Killing logarithmic value: 0.69
[2]; 0.31 g/L, 15 min
  Killing logarithmic value: 0.73
[2]; 0.31 g/L, 30 min
  Killing logarithmic value: 0.86
[2]; 0.78 g/L, 1 min
  Killing logarithmic value: 0.79
[2]; 0.78 g/L, 5 min
  Killing logarithmic value: 0.82
[2]; 0.78 g/L, 15 min
  Killing logarithmic value: 0.89
[2]; 0.78 g/L, 30 min
  Killing logarithmic value: 0.95
[2]; 1.56 g/L, 1 min
  Killing logarithmic value: 0.86
[2]; 1.56 g/L, 5 min
  Killing logarithmic value: 0.91
[2]; 1.56 g/L, 15 min
  Killing logarithmic value: 0.99
[2]; 1.56 g/L, 30 min
  Killing logarithmic value: 1.02
[2]; 3.12 g/L, 1 min
  Killing logarithmic value: 1.13
[2]; 3.12 g/L, 5 min
  Killing logarithmic value: 1.21
[2]; 3.12 g/L, 15 min
  Killing logarithmic value: 1.23
[2]; 3.12 g/L, 30 min
  Killing logarithmic value: 1.26
[2]; 6.25 g/L, 1 min
  Killing logarithmic value: 2.52
[2]; 6.25 g/L, 5 min
  Killing logarithmic value: 2.62
[2]; 6.25 g/L, 15 min
  Killing logarithmic value: 2.74
[2]; 6.25 g/L, 30 min
  Killing logarithmic value: 2.99
[3]; 0.15 g/L, 1 min
  Killing logarithmic value: 0.21
[3]; 0.15 g/L, 5 min
  Killing logarithmic value: 0.29
[3]; 0.15 g/L, 15 min
  Killing logarithmic value: 0.43
[3]; 0.15 g/L, 30 min
  Killing logarithmic value: 0.47
[3]; 0.31 g/L, 1 min
  Killing logarithmic value: 0.29
[3]; 0.31 g/L, 5 min
  Killing logarithmic value: 0.31
[3]; 0.31 g/L, 15 min
  Killing logarithmic value: 0.46
[3]; 0.31 g/L, 30 min
  Killing logarithmic value: 0.58
[3]; 0.78 g/L, 1 min
  Killing logarithmic value: 0.32
[3]; 0.78 g/L, 5 min
  Killing logarithmic value: 0.46
[3]; 0.78 g/L, 15 min
  Killing logarithmic value: 0.63
[3]; 0.78 g/L, 30 min
  Killing logarithmic value: 0.79
[3]; 1.56 g/L, 1 min
  Killing logarithmic value: 0.47
[3]; 1.56 g/L, 5 min
  Killing logarithmic value: 0.65
[3]; 1.56 g/L, 15 min
  Killing logarithmic value: 0.78
[3]; 1.56 g/L, 30 min
  Killing logarithmic value: 0.99
[3]; 3.12 g/L, 1 min
  Killing logarithmic value: 0.69
[3]; 3.12 g/L, 5 min
  Killing logarithmic value: 0.76
[3]; 3.12 g/L, 15 min
  Killing logarithmic value: 0.81
[3]; 3.12 g/L, 30 min
  Killing logarithmic value: 1.02
[3]; 6.25 g/L, 1 min
  Killing logarithmic value: 3.57
[3]; 6.25 g/L, 5 min
  Killing logarithmic value: 3.69
[3]; 6.25 g/L, 15 min
  Killing logarithmic value: 5.86
[3]; 6.25 g/L, 30 min
  Killing logarithmic value: 6.17
